# Assay results: patent US20240317683A1, “METHODS OF TREATING MOOD DISORDERS” (priority 2020, published 2024)
# Where a name gives a salt, the structure may show the parent alone.
# Legend:
# [1] = target: CYP2D6 (Homo sapiens (Human), UniProt P10635); test: CYP inhibition in human liver microsomes, CYP2D6; format: in vitro ADME; conditions: for inhibition at 10 min, 10 µM: both sexes, human, pooled human liver microsomes, pH 7.4, probe dextromethorphan (5 μM), HLM, dextromethorphan substrate, read-out: CYP 2D6 % Inhibition at 10 μM
# CYP2D6, sequence (P10635 whole entry, looked up): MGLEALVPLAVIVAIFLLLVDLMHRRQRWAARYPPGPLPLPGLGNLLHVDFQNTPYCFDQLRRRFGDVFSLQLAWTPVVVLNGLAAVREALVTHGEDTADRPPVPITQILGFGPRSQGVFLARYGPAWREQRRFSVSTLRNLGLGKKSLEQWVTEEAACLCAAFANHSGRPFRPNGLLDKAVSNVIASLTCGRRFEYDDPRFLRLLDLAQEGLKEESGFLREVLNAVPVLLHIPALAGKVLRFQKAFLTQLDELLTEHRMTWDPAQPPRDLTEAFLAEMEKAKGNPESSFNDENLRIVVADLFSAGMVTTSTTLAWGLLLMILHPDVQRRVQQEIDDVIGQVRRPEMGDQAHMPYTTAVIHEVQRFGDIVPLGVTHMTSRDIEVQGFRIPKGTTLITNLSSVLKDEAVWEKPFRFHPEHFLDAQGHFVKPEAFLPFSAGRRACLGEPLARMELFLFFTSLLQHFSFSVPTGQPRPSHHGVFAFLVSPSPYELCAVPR
# [2] = target: CYP2C9 (Homo sapiens (Human), UniProt P11712); test: CYP inhibition in human liver microsomes, CYP2C9; format: in vitro ADME; conditions: for inhibition at 10 min, 10 µM: both sexes, human, pooled human liver microsomes, pH 7.4, probe diclofenac (5 μM), HLM, diclofenac substrate, read-out: CYP 2C9 % Inhibition at 10 μM
# CYP2C9, sequence (P11712 whole entry, looked up): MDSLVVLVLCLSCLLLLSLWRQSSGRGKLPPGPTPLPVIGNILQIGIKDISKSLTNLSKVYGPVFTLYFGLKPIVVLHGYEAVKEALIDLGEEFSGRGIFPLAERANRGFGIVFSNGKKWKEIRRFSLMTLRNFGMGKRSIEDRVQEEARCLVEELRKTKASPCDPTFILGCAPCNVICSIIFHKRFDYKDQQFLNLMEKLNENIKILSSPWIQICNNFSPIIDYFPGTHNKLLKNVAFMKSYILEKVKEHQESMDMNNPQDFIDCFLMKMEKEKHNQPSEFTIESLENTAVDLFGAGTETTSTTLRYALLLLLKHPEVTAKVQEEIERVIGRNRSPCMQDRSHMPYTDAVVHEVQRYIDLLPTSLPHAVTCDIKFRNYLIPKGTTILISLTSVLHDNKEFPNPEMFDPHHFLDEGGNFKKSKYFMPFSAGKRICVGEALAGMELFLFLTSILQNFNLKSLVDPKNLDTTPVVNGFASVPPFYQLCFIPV
# [3] = target: CYP2C19 (Homo sapiens (Human), UniProt P33261); test: CYP inhibition in human liver microsomes, CYP2C19; format: in vitro ADME; conditions: for inhibition at 10 min, 10 µM: both sexes, human, pooled human liver microsomes, pH 7.4, probe (S)-mephenytoin (30 μM), HLM, (S)-mephenytoin substrate, read-out: CYP 2C19 % Inhibition at 10 μM
# CYP2C19, sequence (P33261 whole entry, looked up): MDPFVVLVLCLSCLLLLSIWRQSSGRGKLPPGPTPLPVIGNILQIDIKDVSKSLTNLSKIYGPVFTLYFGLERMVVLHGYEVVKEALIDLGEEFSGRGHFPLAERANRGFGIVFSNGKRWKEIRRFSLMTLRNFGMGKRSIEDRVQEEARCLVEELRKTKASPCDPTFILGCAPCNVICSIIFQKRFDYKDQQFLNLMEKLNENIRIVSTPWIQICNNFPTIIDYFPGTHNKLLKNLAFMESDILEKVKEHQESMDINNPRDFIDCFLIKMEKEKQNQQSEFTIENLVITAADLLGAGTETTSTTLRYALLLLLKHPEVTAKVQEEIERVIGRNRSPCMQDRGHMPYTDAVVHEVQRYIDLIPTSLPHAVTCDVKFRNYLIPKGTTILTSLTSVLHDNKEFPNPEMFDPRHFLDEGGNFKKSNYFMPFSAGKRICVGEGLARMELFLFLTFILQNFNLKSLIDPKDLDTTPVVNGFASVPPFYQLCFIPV
# Method: HLM Incubations. Pooled HLM from adult male and female donors (Corning 452117) were used. Microsomal incubations were carried out in multi-well plates. Liver microsomal incubation aliquots contained 1) PBS (100 mM, pH 7.4), MgCl2 (3.3 mM), and NADPH (1 mM); 2) liver microsomal protein (0.2 mg/mL); 3) the reference CYP substrates: phenacetin for CYP1A2 (10 μM), diclofenac for CYP2C9 (5 μM), (S)-mephenytoin for CYP2C19 (30 μM), dextromethorphan for CYP2D6 (5 μM), and midazolam for CYP3A4 (2 μM); and 4) test compounds (10 μM), control inhibitors (3 μM α-naphthoflavone for CYP1A2, 3 μM sulfaphenazole for CYP2C9, 1 μM (+)-N-3-benzylnirvanol for 2C19, 3 μM quinidine for CYP2D6, or 3 μM ketoconazole for CYP3A4), or solvent (for uninhibited condition). Incubations were carried out at 37° C. with constant shaking for 10 minutes.
# Sample Analysis. […] Percent inhibition by test compounds or control inhibitors was calculated by comparing the metabolite formation in the presence of the inhibitor compared to the metabolite formation in the absence of the inhibitor.
# [4] = test system: rat synaptosomes; test: Synaptosome 5-HT release assay; format: biochemical, Sprague-Dawley rats; conditions: for EC50: [3H]5-HT
# Method: Synaptosome 5-HT Release Assay. Synaptosome release assays were conducted according to modifications of previously described procedures (Partilla et al. (2016). Interrogating the Activity of Ligands at Monoamine Transporters in Rat Brain Synaptosomes. In Neurotransmitter Transporters (pp. 41-52). Springer.). Briefly, synaptosomes were prepared from rat brains. Male Sprague-Dawley rats were rendered unconscious with CO2 and their brains were immediately removed. The cerebella were discarded and the whole brains (minus striatum) were placed in ice-cold 0.32 M sucrose (10 mL per brain) and gently homogenized by hand. The homogenate of each brain was centrifuged at 1,000× g at 4° C. for 10 mins and the resulting supernatant was diluted with ice-cold 0.32 M sucrose to a total volume of 10 mL to provide the synaptosome solution. Synaptosomes were then preloaded with 5 nM [^3H] 5-HT in the presence of selective uptake inhibitors of DAT (50 nM GBR12935), NET (100 nM nomifensine), and VMAT2 (1 μM reserpine) in Krebs phosphate buffer (KPB). The incubations were allowed to reach equilibrium for 2 h at 25° C. For the release reactions, 425 μL of preloaded synaptosomes were added to test tubes containing 75 μL of test drugs diluted in KPB containing 1 mg/mL BSA. After 10 mins, the release reaction was stopped using a cell harvester by rapid vacuum filtration over GF/B filter paper presoaked in wash buffer (10 mM Tris-HCl, pH 7.4, 150 mM NaCl) and the filters were washed with additional wash buffer. Filters were dried for 1 h at 60° C. and retained radioactivity was quantified using a MicroBeta 2 liquid scintillation counter. The amount of retained radioactivity was inversely proportional to the extent of release.
# [5] = Pharmacokinetics in rats, plasma; format: in vivo; conditions: male, Sprague Dawley, rat plasma, SC
# Method: Animals. Male Sprague Dawley rats, aged 8-12 weeks, were used in these studies. Four rats were housed in each cage. Temperature and humidity were maintained at 22±3° C. and 30-70%, respectively, and illumination was controlled to give a 12 h light and 12 h dark cycle. Temperature and humidity were recorded by an auto-controlled data logger system. All animals were provided laboratory rodent diet and were fasted for 4 h pre-dose and 2 h post-dose. Reverse osmosis water treated with ultraviolet light was provided ad libitum. Animals were randomly assigned to treatment groups.
# Drugs. Compounds 4 and 5 were prepared as described above. Compound 6 was commercially obtained. Test compounds were used as the hydrogen fumarate (6) or hydrochloride (4 and 5) salts and were dissolved in a vehicle consisting of normal saline. They were then administered subcutaneously (SC) at a dose of 1 or 10 mg/kg (calculated based on the free base) and at a volume of 5 mL/kg body weight.
# Sample Collection and Bioanalysis. Blood samples (approximately 120 μL) were collected under light isoflurane anesthesia (Surgivet®) from the retro orbital plexus at 0.08, 0.25, 0.5, 1, 2, 4, 8, and 24 h (4 animals per time point). Immediately after blood collection, plasma was harvested by centrifugation at 4,000 rpm for 10 min at 4° C. and samples were stored at −70±10° C. until bioanalysis. Following blood collection, animals were immediately sacrificed, the abdominal vena-cava was cut open, and the whole body was perfused from the heart using 10 mL of normal saline, and brain samples were collected from all animals. After isolation, brain samples were rinsed three times in ice-cold normal saline (for 5-10 seconds/rinse using ˜5-10 mL normal saline in disposable petri dish for each rinse) and dried on blotting paper. Brain samples were homogenized using ice-cold phosphate-buffered saline (pH 7.4). Total homogenate volume was three times the tissue weight. All homogenates were stored at −70±10° C. until bioanalysis. For bioanalysis, 25 μL aliquots of plasma/brain study samples or spiked plasma/brain calibration standards were added to individual pre-labeled micro-centrifuge tubes followed by 100 μL of an internal standard solution (glipizide, 500 ng/ml in acetonitrile) except for blanks, where 100 μL of acetonitrile was added. Samples were vortexed for 5 minutes and then centrifuged for 10 minutes at 4,000 rpm at 4° C. Following centrifugation, 100 μL of each clear supernatant was transferred to a 96 well plate and analyzed with a fit-for-purpose LC-MS/MS method, with authentic samples of each analyte used for calibration and identification.
# Data Analysis. Pharmacokinetic parameters were estimated using the non-compartmental analysis tool of Phoenix® WinNonlin software (Ver 8.0).
# [6] = target: human 5-HT2C receptor (Homo sapiens (Human), UniProt P28335); test: cell-based; format: cell-based; conditions: Ca2+ flux
# human 5-HT2C receptor, sequence (P28335 33-458 limits assumed): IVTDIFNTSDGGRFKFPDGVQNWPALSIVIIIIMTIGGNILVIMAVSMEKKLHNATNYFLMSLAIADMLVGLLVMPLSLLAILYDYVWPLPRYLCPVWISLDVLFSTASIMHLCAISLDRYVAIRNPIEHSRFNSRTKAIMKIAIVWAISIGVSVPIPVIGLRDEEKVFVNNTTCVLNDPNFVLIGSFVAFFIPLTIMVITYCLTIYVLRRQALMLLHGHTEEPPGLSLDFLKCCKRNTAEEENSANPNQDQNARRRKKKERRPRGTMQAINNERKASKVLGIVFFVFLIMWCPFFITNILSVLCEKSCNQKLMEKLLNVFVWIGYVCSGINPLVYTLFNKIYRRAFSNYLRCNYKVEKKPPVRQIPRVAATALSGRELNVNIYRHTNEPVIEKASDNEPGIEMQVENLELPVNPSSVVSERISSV
Structure (SMILES),IC50 [1] [µM],IC50 [2] [µM],IC50 [3] [µM],% Release @ Max Dose (10 μM) [4] [%],EC50 [4] [µM],AUC(0-t) ([5]; 1 mg/kg) [µg·h/mL],Cmax ([5]; 1 mg/kg) [µg/mL],Tmax ([5]; 1 mg/kg) [min],AUC(0-t) ([5]; 10 mg/kg) [µg·h/mL],Cmax ([5]; 10 mg/kg) [µg/mL],Tmax ([5]; 10 mg/kg) [min],5-HT2C % Act @ Max Dose [6] [%],EC50 [6] [µM],"inhibition at 10 min, 10 µM [1] [%]","inhibition at 10 min, 10 µM [2] [%]","inhibition at 10 min, 10 µM [3] [%]",half-life ([5]; 10 mg/kg) [min]
"CCN(C)CCc1c[nH]c2ccc(F)cc12 [Compound 4, N-ethyl-2-(5-fluoro-1H-indol-3-yl)-N-methylethan-1-amine hydrochloride]",> 50,> 50,> 50,71.36,0.00843,0.0468,0.0413,30,0.499,0.237,60,85.13,0.00946,–,–,–,–
"CCN(C)CCc1c[nH]c2ccccc12 [Compound 2, methylethyltryptamine]",31.5,> 50,> 50,71,0.183,–,–,–,–,–,–,89.7,–,11.5,0,0,–
"CCCN(CC)CCc1c[nH]c2ccc(F)cc12 [Compound 3, N-ethyl-N-(2-(5-fluoro-1H-indol-3-yl)ethyl) propan-1-amine hydrochloride]",1.9,> 50,> 50,–,–,–,–,–,–,–,–,–,–,–,–,–,–
"CN(C)CCc1c[nH]c2ccc(F)cc12 [Compound 5, 2-(5-fluoro-1H-indol-3-yl)-N,N-dimethylethan-1-amine hydrochloride]",–,–,–,–,–,–,–,–,0.266,0.243,15,–,–,–,–,–,33
"CN(C)CCc1c[nH]c2ccccc12 [DMT, N,N-dimethyltryptamine, reference compound]",–,–,–,80.77,0.0808,–,–,–,–,–,–,–,–,–,–,–,–
CCN(C)CCc1c[nH]c2cccc(O)c12 [Compound 6],48.5,> 50,> 50,–,–,–,–,–,3,0.624,120,–,–,–,–,–,–
"CCCN(CC)CCc1c[nH]c2ccccc12 [Compound 1, ethylpropyltryptamine]",–,–,–,–,–,–,–,–,–,–,–,90.8,0.0334,58.6,0.1,2.3,–
